Results as given in patent publication US10111434B2, “Binary fungicidal mixtures” (BAYER CROPSCIENCE AG, priority 2012, dated 2018).

Legend:
Phakopsora pachyrhizi = assay: Phakopsora test (soybeans)/preventive; assay type: in vivo; conditions: preventive spray, evaluated 7 days after inoculation
Experimental: Phakopsora Test (Soybeans)/Preventive
(§1) To produce a suitable preparation of active compound, 1 part by weight of active compound is mixed with the stated amounts of solvent and emulsifier, and the concentrate is diluted with water to the desired concentration.
To test for preventive activity, young plants are sprayed with the preparation of active compound at the stated rate of application. After the spray coating has dried on, the plants are inoculated with an aqueous spore suspension of the causal agent of soybean rust (Phakopsora pachyrhizi) and stay for 24 h without light in an incubation cabinet at approximately 24° C. and a relative atmospheric humidity of 95%.
The plants remain in the incubation cabinet at approximately 24° C. and a relative atmospheric humidity of approximately 80% and a day/night interval of 12 h.
The test is evaluated 7 days after the inoculation. 0% means an efficacy which corresponds to that of the untreated control, while an efficacy of 100% means that no disease is observed.

Alternaria solani = assay: Alternaria test (tomatoes)/preventive; assay type: in vivo; conditions: preventive spray, evaluated 3 days after inoculation
Experimental: Alternaria Test (Tomatoes)/Preventive
as §1
To test for preventive activity, young plants are sprayed with the preparation of active compound at the stated rate of application. After the spray coating has dried on, the plants are inoculated with an aqueous spore suspension of Alternaria solani. The plants are then placed in an incubation cabinet at approximately 20° C. and a relative atmospheric humidity of 100%.
The test is evaluated 3 days after the inoculation. 0% means an efficacy which corresponds to that of the untreated control while an efficacy of 100% means that no disease is observed.

Compound	Efficacy in % found (Phakopsora pachyrhizi; 25 ppm a.i.) [%]	Efficacy in % found (Alternaria solani; 25 ppm a.i.) [%]	Efficacy in % found (Phakopsora pachyrhizi; 2.5 ppm a.i.) [%]	Efficacy in % found (Alternaria solani; 2.5 ppm a.i.) [%]
Cn1c(=O)c2sc3c(=O)n(C)c(=O)c3sc2c1=O [2.1, 2,6-dimethyl-1H,5H-[1,4]dithiino[2,3-c:5,6-c′]dipyrrole-1,3,5,7(2H,6H)-tetrone]	8	39		
CC1CC(C)(C)c2cccc(NC(=O)c3cn(C)nc3C(F)F)c21 (stereo not drawn) [(I-1), 3-(difluoromethyl)-1-methyl-N-(1,1,3-trimethyl-2,3-dihydro-1H-inden-4-yl)-1H-pyrazole-4-carboxamide]			68	36
propineb [2.2]	0	33		
